25 compounds from patent US20220220106A1, “QUINOLINE COMPOUNDS AND PHARMACEUTICAL COMPOSITIONS AND USES THEREOF” (Academy of Military Medical Sciences, priority 2019, published 2022) can be followed below.

As usually defined, the IC50 is the concentration that inhibits the measured activity by half. A word on the melting point: it is the temperature, or range, at which the solid turns liquid.

For data set [1], the system named is Enterovirus 71 (EV71) H strain. The data set can be described thus: In vitro anti-EV71 activity (antiviral activity in RD cells, CellTiter-Glo). It is filed as cell-based. The following applies: for in vitro anti-EV71 activity, in words: EV71, RD cells; for IC50: Enterovirus A, 96 h. The procedure, abridged:
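RD cells infected with 100TCID50 EV71 in DMEM+2% FBS, with compound in 10-point three-fold dilutions, cultured 4 days at 37° C. Cell viability by CellTiter-Glo luminescence; inhibition rate relative to cell control fitted to S-curve for IC50. TD50 derived likewise; SI=TD50/IC50.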
For orientation: Cellular ATP, detected with luciferase, serves as a proxy for viable cell number.

Data set [2] in a line: Water solubility in saturated aqueous solution (HPLC, one-point method). Particulars: for Water solubility: deionized water, 25° C. Type of data set: physicochemical. As for the experimental part: By measuring the solubility of compound in a saturated aqueous solution, the water solubility of the compound was further investigated.
Preparation of Supersaturated Solution:
(1) About 1 mg of the compound to be tested was weighed and added to a 25 mL tube;
(2) 5 mL of deionized water was added, shaken well, placed in a vortex shaker and mixed for 30 seconds, then treated ultrasonically for 30 seconds;
(3) The tube was placed in a constant temperature water bath, and allowed to stand in a constant temperature water bath at 25° C. for 1 hour;
(4) The operation of (2) was repeated, and the standing at constant temperature of 25° C. was continued for 1 hour;
(5) The prepared supersaturated solution supernatant was taken out and placed in a centrifuge tube, centrifuged at 15000 rpm for 5 minutes, and the upper centrifugate was taken out for later use.
Liquid Chromatography Method:
(1) Chromatographic column: Agilent XDB Eclipse C18, 25 cm×4.6 mm×5 μm liquid chromatography column.
(2) Mobile phase: Phase A: water (0.1% trifluoroacetic acid); Phase B: acetonitrile.
(3) Flow rate: 1.0 mL/min.
(4) Sampling volume: 10 μl.
Preparation of standard solution: 1.0 mg of the sample to be tested was accurately weighed, added to a 10 mL volumetric flask, dissolved in methanol as solvent, metered to a constant volume of 10 mL, the concentration of solution was calculated, and it was used as a standard solution for later use.
By using the one-point method, the chromatographic peak area of the standard solution of the sample to be tested was determined, and then the peak area of the supersaturated compound was determined, and the solubility of the compound to be tested in water was calculated accordingly.

Setting [3] is: EV71 H strain, RD cells, 4 days, CellTiter-Glo, read-out: IC50.

Where two headings read alike, the source gives them in different places.

`CC(=O)/C=C/c1cnc2ccc(-c3ccc(C)nc3)cc2c1Nc1cccc(C(F)(F)F)c1` [HTL-2-38, (E)-6-[3-(6-methyl)pyridyl]-4-[3-(trifluoromethyl)phenyl]aminoquinoline-3-butenone] displayed a melting point of 172 to 174 °C. Further, the “in vitro anti-EV71 activity, in words” value in data set [1] is reported as “moderate anti-EV71 activity”. For the same compound, the IC50 in data set [1] (setting [3]) stood at 2850 ± 1200 nM.
Turning to `NC(=O)c1ccc(-c2ccc3ncc4oc(=O)n(-c5cccc(C(F)(F)F)c5)c4c3c2)cc1` [HTL-5-21, 8-(4-carbamoyl)phenyl-1-[3-(trifluoromethyl)phenyl]oxazolo[5,4-c]quinolin-2(1H)-one], the melting point was in the range of 294 to 296 °C. Further, the “in vitro anti-EV71 activity, in words” value in data set [1] is reported as “moderate inhibitory activity”. Further, in data set [1] (setting [3]), the IC50 was found to be 2000 ± 300 nM.
In the case of `Nc1cccc(Nc2ccc3ncc4ccc(=O)n(-c5cccc(C(F)(F)F)c5)c4c3c2)c1` [HTL-6-11, 9-(3-aminophenyl)imino-2-oxo-1-[3-(trifluoromethyl)phenyl]-1,2-dihydrobenzo[h][1,6]naphthyridine], the “in vitro anti-EV71 activity, in words” value in data set [1] is “moderate activity”. Also, the IC50 in data set [1] (setting [3]) was 890 nM.
The like results for `Nc1cccc(Nc2ccc3ncc4ccc(=O)n(-c5cccc(C(F)(F)F)c5)c4c3c2)n1` [HTL-6-12, 9-[2-(6-aminopyridyl)]imino-2-oxo-1-[3-(trifluoromethyl)phenyl]-1,2-dihydrobenzo[h][1,6]naphthyridine] were, in that order, “moderate activity” and 1230 ± 220 nM.
`NC(=O)/C=C/c1ccc2ncc3oc(=O)n(-c4cccc(C(F)(F)F)c4)c3c2c1` [HTL-6-30, (E)-8-(2-carbamoyl-vinyl)-1-[3-(trifluoromethyl)phenyl]oxazolo[5,4-c]quinolin-2(1H)-one] displayed a melting point of 291 to 292 °C. Besides, in data set [1], the “in vitro anti-EV71 activity, in words” value is recorded as “moderate inhibitory activity”. The IC50 in data set [1] (setting [3]) stood at 3700 ± 210 nM.
In the case of `CCC(=O)Nc1ccc(-c2ccc3ncc4ccc(=O)n(-c5cccc(C(F)(F)F)c5)c4c3c2)cn1` [HTL-6-45, 9-[3-(6-propionylamino)pyridyl]-2-oxo-1-[3-(trifluoromethyl)phenyl]-1,2-dihydrobenzo[h][1,6]naphthyridine], the Water solubility in data set [2] is 0.39 µg/mL. For the same compound, in data set [1] (setting [3]), the IC50 turned out to be 27 ± 10 nM.
In the case of `O=c1ccc2cnc3ccc(-c4ccc5ncccc5c4)cc3c2n1-c1cccc(C(F)(F)F)c1` [HTL-6-47, 9-(6-quinolyl)-2-oxo-1-[3-(trifluoromethyl)phenyl]-1,2-dihydrobenzo[h][1,6]naphthyridine], the melting point lay in the range of 196 to 197 °C. In addition, the IC50 in data set [1] (setting [3]) was 250 ± 230 nM.
Turning to `O=c1ccc2cnc3ccc(-c4cccnc4F)cc3c2n1-c1cccc(C(F)(F)F)c1` [HTL-6-48, 9-[3-(2-fluoro)pyridyl]-2-oxo-1-[3-(trifluoromethyl)phenyl]-1,2-dihydrobenzo [h][1,6]naphthyridine], in data set [2], the “water solubility, in words” value is reported as “relatively high water solubility” and the Water solubility was found to be 5.88 µg/mL. In addition, the “in vitro anti-EV71 activity, in words” value in data set [1] was “high activity”. The IC50 in data set [1] (setting [3]) was 59 nM.
On to `Cc1ncccc1-c1ccc2ncc3ccc(=O)n(-c4cccc(C(F)(F)F)c4)c3c2c1` [HTL-6-49, 9-[3-(2-methyl)pyridyl]-2-oxo-1-[3-(trifluoromethyl)phenyl]-1,2-dihydrobenzo[h][1,6]naphthyridine], for which the IC50 in data set [1] (setting [3]) amounted to 70 ± 10 nM.
`O=c1ccc2cnc3ccc(-c4cc[nH]n4)cc3c2n1-c1cccc(C(F)(F)F)c1` [HTL-6-50, 9-[(1H)-3-pyrazolyl]-2-oxo-1-[3-(trifluoromethyl)phenyl]-1,2-dihydrobenzo[h][1,6]naphthyridine] displayed a melting point of 283 to 286 °C. Besides, the IC50 in data set [1] (setting [3]) was above 200000 nM.
In data set [2], `O=c1ccc2cnc3ccc(-c4ccc(F)nc4)cc3c2n1-c1cccc(C(F)(F)F)c1` [HTL-7-01, 9-[3-(6-fluoro)pyridyl]-2-oxo-1-[3-(trifluoromethyl)phenyl]-1,2-dihydrobenzo[h][1,6]naphthyridine] displayed a Water solubility of 0.42 µg/mL. Moreover, in data set [1] (setting [3]), the IC50 was determined as 70 ± 10 nM.
Take `O=C1Cc2cc(-c3ccc4ncc5ccc(=O)n(-c6cccc(C(F)(F)F)c6)c5c4c3)ccc2N1` [HTL-7-04, 9-[5-(2-oxo)indolyl]-2-oxo-1-[3-(trifluoromethyl)phenyl]-1,2-dihydrobenzo[h][1,6]naphthyridine]: the IC50 in data set [1] (setting [3]) was determined as 10500 ± 560 nM.
The same measure, in the same setting: the same measure for `CCCC(=O)Nc1ccc(-c2ccc3ncc4ccc(=O)n(-c5cccc(C(F)(F)F)c5)c4c3c2)cn1` [HTL-7-05, 9-[3-(6-butyrylamino)pyridyl]-2-oxo-1-[3-(trifluoromethyl)phenyl]-1,2-dihydrobenzo[h][1,6]naphthyridine]: 130 ± 60 nM.
Compound `COc1ncc(-c2ccc3ncc4ccc(=O)n(-c5cccc(C(F)(F)F)c5)c4c3c2)cn1` [HTL-7-06, 9-[5-(2-methoxy)pyrimidyl]-2-oxo-1-[3-(trifluoromethyl)phenyl]-1,2-dihydrobenzo[h][1,6]naphthyridine] yielded a melting point of 262 to 264 °C. In addition, in data set [1] (setting [3]), the IC50 is 50 ± 10 nM.
`CCCCC(=O)Nc1ccc(-c2ccc3ncc4ccc(=O)n(-c5cccc(C(F)(F)F)c5)c4c3c2)cn1` [HTL-7-08, 9-[3-(6-valerylamino)pyridyl]-2-oxo-1-[3-(trifluoromethyl)phenyl]-1,2-dihydrobenzo[h][1,6]naphthyridine]: the IC50 in data set [1] (setting [3]) came to 200 ± 20 nM.
Still for that read-out and setting: the same measure for `O=C(Cc1ccccc1)Nc1ccc(-c2ccc3ncc4ccc(=O)n(-c5cccc(C(F)(F)F)c5)c4c3c2)cn1` [HTL-7-10, 9-[3-(6-phenylacetylamino)pyridyl]-2-oxo-1-[3-(trifluoromethyl)phenyl]-1,2-dihydrobenzo[h][1,6]naphthyridine]: 390 ± 180 nM.
In turn, `COc1ccc(CC(=O)Nc2ccc(-c3ccc4ncc5ccc(=O)n(-c6cccc(C(F)(F)F)c6)c5c4c3)cn2)cc1` [HTL-7-11, 9-{3-[6-(4-methoxy)phenylacetylamino]pyridyl}-2-oxo-1-[3-(trifluoromethyl)phenyl]-1,2-dihydrobenzo[h][1,6]naphthyridine] had a melting point of 241 to 243 °C. In addition, the IC50 in data set [1] (setting [3]) was 95 ± 7 nM.
The compound `O=c1ccc2cnc3ccc(C4=CCC5(CC4)OCCO5)cc3c2n1-c1cccc(C(F)(F)F)c1` [HTL-7-13, 9-(1,4-dioxa-spiro[4.5]dec-7-en-8-yl)-2-oxo-1-[3-(trifluoromethyl)phenyl]-1,2-dihydrobenzo[h][1,6]naphthyridine] displayed a melting point of 210 to 211 °C. In data set [1] (setting [3]), the IC50 was 26300 ± 12900 nM.
On to `O=C(Nc1ccc(-c2ccc3ncc4ccc(=O)n(-c5cccc(C(F)(F)F)c5)c4c3c2)cn1)OCc1ccccc1` [HTL-7-14, 9-[3-(6-benzyloxyamido)pyridyl]-2-oxo-1-[3-(trifluoromethyl)phenyl]-1,2-dihydrobenzo[h][1,6]naphthyridine], for which, in data set [1] (setting [3]), the IC50 was 23700 ± 1020 nM.
The compound `O=C(Nc1ccc(-c2ccc3ncc4ccc(=O)n(-c5cccc(C(F)(F)F)c5)c4c3c2)cn1)Oc1ccccc1` [HTL-7-15, 9-[3-(6-phenoxyamido)pyridyl]-2-oxo-1-[3-(trifluoromethyl)phenyl]-1,2-dihydrobenzo[h][1,6]naphthyridine] registered a 50% inhibitory concentration (IC50) in data set [1] (EV71, RD) of 90 ± 20 nM.
`CN(C)c1ccc(-c2ccc3ncc4ccc(=O)n(-c5cccc(C(F)(F)F)c5)c4c3c2)cn1` [HTL-7-16, 9-[3-(6-N,N-dimethyl)pyridyl]-2-oxo-1-[3-(trifluoromethyl)phenyl]-1,2-dihydrobenzo[h][1,6]naphthyridine]: the IC50 in data set [1] (setting [3]) is 90 ± 10 nM.
Still for that read-out and setting: for `O=c1ccc2cnc3ccc(-c4ccc(N5CCOCC5)nc4)cc3c2n1-c1cccc(C(F)(F)F)c1` [HTL-7-18, 9-[3-(6-morpholin-4-yl)pyridyl]-2-oxo-1-[3-(trifluoromethyl)phenyl]-1,2-dihydrobenzo[h][1,6]naphthyridine] the value was 1800 ± 1170 nM.
For `COc1cc(-c2ccc3ncc4ccc(=O)n(-c5cccc(C(F)(F)F)c5)c4c3c2)cnc1N` [HTL-7-19, 9-[3-(6-amino-5-methoxy)pyridyl]-2-oxo-1-[3-(trifluoromethyl)phenyl]-1,2-dihydrobenzo[h][1,6]naphthyridine], the melting point lay in the range of 233 to 234 °C. Further, the IC50 in data set [1] (setting [3]) is 45 ± 10 nM.
For `O=c1ccc2cnc3ccc(-c4ccc(N5CCCC5)nc4)cc3c2n1-c1cccc(C(F)(F)F)c1` [HTL-7-20, 9-[3-(6-pyrrolidinyl)pyridyl]-2-oxo-1-[3-(trifluoromethyl)phenyl]-1,2-dihydrobenzo[h][1,6]naphthyridine], the IC50 in data set [1] (setting [3]) is 100 ± 10 nM.
In the case of `CC(C)(C)OC(=O)Nc1ccc(-c2ccc3ncc4ccc(=O)n(-c5cccc(C(F)(F)F)c5)c4c3c2)cn1` [HTL-7-21, 9-[3-(6-tert-butoxycarbonylamino)pyridyl]-2-oxo-1-[3-(trifluoromethyl)phenyl]-1,2-dihydrobenzo[h][1,6]naphthyridine], the IC50 in data set [1] (setting [3]) amounted to 2080 ± 2290 nM.
